A melting point compilation (Tetko et al.; mined from patent text by program, amines drawn as free bases though some values may be those of a salt)

| melting point [°C] | Structure (SMILES) |
| --- | --- |
| 149 to 151 | COc1ccc2cc([C@H](C)C(=O)NNC(=O)CCCO)ccc2c1 |
| 108 to 109 | C#Cc1cnc2c(C)cc(OC(SC)C(=O)NC(C)(C#C)COC)cc2c1 (centres undefined) |
| 332 | O=C(NN=CC=Cc1ccc([N+](=O)[O-])o1)c1cn2ccsc2n1 |
| 137 | O=C(O)c1ccc(Br)cc1Cc1ccccc1 |
| 268 to 271 | O=c1[nH]nc(Br)c2ccccc12 |
| 32 to 34 | COC(=O)C#CC(=O)c1cccc(OC)c1 |
| 205 | COc1ccc(C(Nc2ccc(C(=N)NO)cc2)C(=O)O)c(OCCO)c1 (racemic) |
| 250 to 252 | CC(=O)c1ccc(-n2c(-c3sc(NC(=O)c4ccccc4)nc3-c3ccccc3)nc3ccccc3c2=O)cc1 |
| 221 to 223 | COc1csc(C(=O)C2C(=O)N(C(N)=O)c3ccc(Cl)cc32)c1 (centres undefined) |
| 149 to 150 | C=CCOC(=O)Nc1sc(-c2cccc(Cl)c2)cc1C(=O)OC |
| 168 to 169 | COc1cc2c(cc1OC)CC1(CC2)NC(=O)CC(C)C1=O (centres undefined) |
| 94 | N#Cc1cc([N+](=O)[O-])ccc1OCC(F)(F)F |
| 248 to 250 | CC(C)(N)Cn1c(CO)nc2c(N)nc3ccccc3c21 |
| 58 to 61 | CCOC(=O)CCC(CC(=O)c1ccc(N)cc1)C(=O)OCC (racemic) |
| 173 to 175 | CSc1cc(C(=O)c2cc(C(C)(C)C)c(O)c(C(C)(C)C)c2)cn1C |
| 104 to 108 | O=C(c1ccccc1)C(c1ccc(Cl)cc1Cl)C(F)n1cncn1 (centres undefined) |
| 83 to 85 | CN1C(=O)N(c2ccc(Cl)cc2)S[N+]1(C)[O-] (centres undefined) |
| 178 to 180 | CCOC(=O)C(=O)c1csc(NC(=O)CCl)n1 |
| 149 to 151 | COc1ccc(-c2cc(C)cn2-c2ccc(S(N)(=O)=O)cc2)cc1C |
| 94 to 95 | CCOc1ccc(-c2ccc(O)c(C=O)c2)cc1 |
| 180 | COc1cc2cc(C=O)c(Cl)nc2cc1F |
| 84 to 87 | CC(=O)c1ccc(-c2cccc(-c3nc(C(C)C)[nH]c3-c3cccc(C)n3)c2)cc1 |

Second part, the molecule before the results:

| Structure (SMILES) | melting point [°C] |
| --- | --- |
| COc1ccc(-c2cc(CN3CCN(CCO)CC3)c(=O)n(CC=Cc3ccc(Cl)cc3)n2)cc1F | 133 to 135 |
| CC(C)Oc1ccc(-c2nn(C(C)c3oc4cccc(F)c4c(=O)c3-c3cccc(F)c3)c3ncnc(N)c23)cc1F (centres undefined) | 228 to 230 |
| O=C(Nc1c(F)cc(F)cc1F)N(Cc1cc2ccccc2c2ccccc12)C1CCCCC1 | 122 to 124 |
| CNC(=C[N+](=O)[O-])NCCCSc1nccc(NC(N)=NCC(F)(F)F)n1 | 189 to 191 |
| Cn1cnnc1C(O)(c1ccc(Cl)cc1)c1ccc2c(c1)c(-c1cccc(Cl)c1)cc(=O)n2C (centres undefined) | 182 |
| CCN(C(C)=O)c1cccc(-c2ccc3nnc(C)n3n2)c1 | 180 to 185 |
| Nc1sc(-c2ccccc2)c(CN(C2CCCCC2)C2CCCCC2)c1C(=O)c1ccc(Cl)cc1 | 201 to 203 |
| Cc1nnc2n1-c1ccc(Cl)cc1C(=S)NC2 | 298 to 303 |
| OCc1ccccc1-c1nc(-c2ccc(Cl)cc2)n[nH]1 | 252 to 254 |
| Cc1ccc(-c2ccc3c(c2)C=C(C(=O)Nc2ccc(CN4CCN(c5ncccn5)CC4)cc2)CC3)cc1 | 203 to 204 |
| CC(C)OC(=O)Cn1c(=O)n(C)c(=O)n(-c2cc(N=c3sc(=O)n4n3CCCCC4)c(F)cc2Cl)c1=O | 95 to 106 |
| CCCc1cc(C(O)(CC)CC)ccc1-c1cc(CCc2ccc(CO)c(CO)c2)ccc1C | 76 |
| FC(F)(F)c1cccc(-c2cnnn2-c2cc(Cl)ccc2-c2nnn[nH]2)c1 | 230 to 232 |
| Nc1nccc(C=Cc2ccccn2)c1[N+](=O)[O-] | 161 to 163 |
| CCOP(=O)(OCC)c1ccc(N)cc1 | 112 to 116 |
| NC(=S)C1CCCc2cccnc21 (centres undefined) | 160 |
| N#CCN1CCC(=C2c3cc(F)ccc3CCn3ccnc32)CC1 | 198 |
